Test system: MV-4-11 cells
Assay: Gene expression microarray analysis (Affymetrix PrimeView) and GSEA
Assay type: cell-based, human
Design: RFU PODN (11730768_x_at) / Fold change /veh PODN (11730768_x_at) / RFU LINC00158 (11744669_a_at) / Fold change /veh LINC00158 (11744669_a_at) / RFU DUSP10 (11751237_a_at) / Fold change /veh DUSP10 (11751237_a_at) / RFU ID3 (11757404_x_at) / Fold change /veh ID3 (11757404_x_at) / RFU PLEKHG5 (11737974_s_at) / Fold change /veh PLEKHG5 (11737974_s_at) / RFU LRRC4B (11730491_at) / Fold change /veh LRRC4B (11730491_at) / RFU GIMAP4 (11747438_a_at) / Fold change /veh GIMAP4 (11747438_a_at) / RFU KRT8 (11758183_x_at) / Fold change /veh KRT8 (11758183_x_at) / RFU CNN1 (11734310_a_at) / Fold change /veh CNN1 (11734310_a_at) / RFU VPS37D (11726825_at) / Fold change /veh VPS37D (11726825_at) / RFU C10orf10 (11716522_x_at) / Fold change /veh C10orf10 (11716522_x_at) / RFU KIR2DL2 /// KIR2DL4 /// KIR2DL5A /// KIR2DL5B /// KIR2DS1 /// KIR2DS2 /// KIR2DS3 /// KIR2DS4 /// KIR3DL3 /// KIR3DL3 /// KIR3DS1 (11738374_at) / Fold change /veh KIR2DL2 /// KIR2DL4 /// KIR2DL5A /// KIR2DL5B /// KIR2DS1 /// KIR2DS2 /// KIR2DS3 /// KIR2DS4 /// KIR3DL3 /// KIR3DL3 /// KIR3DS1 (11738374_at) / RFU C1QL1 (11718748_at) / Fold change /veh C1QL1 (11718748_at) / RFU TMPRSS4 (11747572_a_at) / Fold change /veh TMPRSS4 (11747572_a_at) / RFU HAMP (11756126_x_at) / Fold change /veh HAMP (11756126_x_at) / RFU RNFT2 (11725882_a_at) / Fold change /veh RNFT2 (11725882_a_at) / RFU NR4A2 (11747474_a_at) / Fold change /veh NR4A2 (11747474_a_at) / RFU ABCC12 (11746883_a_at) / Fold change /veh ABCC12 (11746883_a_at) / RFU TMEM136 (11760407_x_at) / Fold change /veh TMEM136 (11760407_x_at) / RFU CLDN22 /// WWC2 (11732394_at) / Fold change /veh CLDN22 /// WWC2 (11732394_at) / RFU HLA-DPB1 (11760878_x_at) / Fold change /veh HLA-DPB1 (11760878_x_at) / RFU SPINT1 (11716480_a_at) / Fold change /veh SPINT1 (11716480_a_at) / RFU GAP43 (11754022_s_at) / Fold change /veh GAP43 (11754022_s_at) / RFU A4GNT (11735810_at) / Fold change /veh A4GNT (11735810_at) / RFU PRB3 (11715151_x_at) / Fold change /veh PRB3 (11715151_x_at) / RFU TUBB4B (11761932_at) / Fold change /veh TUBB4B (11761932_at) / RFU CAPN14 (11732068_a_at) / Fold change /veh CAPN14 (11732068_a_at) / RFU TMCC2 (11721928_a_at) / Fold change /veh TMCC2 (11721928_a_at) / RFU IRGQ (11745062_a_at) / Fold change /veh IRGQ (11745062_a_at) / RFU FAM174B (11720279_a_at) / Fold change /veh FAM174B (11720279_a_at) / RFU TMPRSS4 (11748680_a_at) / Fold change /veh TMPRSS4 (11748680_a_at) / RFU FAM212B (11763350_a_at) / Fold change /veh FAM212B (11763350_a_at) / RFU PLEKHG5 (11743358_a_at) / Fold change /veh PLEKHG5 (11743358_a_at) / RFU ZSCAN30 (11745921_a_at) / Fold change /veh ZSCAN30 (11745921_a_at) / RFU CMKLR1 (11741424_a_at) / Fold change /veh CMKLR1 (11741424_a_at) / RFU LOC101060620 /// MAPK8IP1 (11723275_at) / Fold change /veh LOC101060620 /// MAPK8IP1 (11723275_at) / RFU SPTSSB (11747773_x_at) / Fold change /veh SPTSSB (11747773_x_at) / RFU PRSS12 (11739890_at) / Fold change /veh PRSS12 (11739890_at) / RFU BIN1 (11741810_x_at) / Fold change /veh BIN1 (11741810_x_at) / RFU WNT11 (11732464_a_at) / Fold change /veh WNT11 (11732464_a_at) / RFU C10orf10 (11716521_a_at) / Fold change /veh C10orf10 (11716521_a_at) / RFU C5orf56 (11738089_at) / Fold change /veh C5orf56 (11738089_at) / RFU CYB561 (11721691_x_at) / Fold change /veh CYB561 (11721691_x_at) / RFU ANKRD19P (11752326_a_at) / Fold change /veh ANKRD19P (11752326_a_at) / RFU OR2T12 /// OR2T33 /// OR2T8 (11738714_s_at) / Fold change /veh OR2T12 /// OR2T33 /// OR2T8 (11738714_s_at) / RFU VCAN (11748164_a_at) / Fold change /veh VCAN (11748164_a_at) / RFU JSRP1 (11732532_at) / Fold change /veh JSRP1 (11732532_at) / RFU KRTAP10-11 (11738290_x_at) / Fold change /veh KRTAP10-11 (11738290_x_at) / RFU MYO3A (11730013_a_at) / Fold change /veh MYO3A (11730013_a_at) / RFU EBF3 (11725865_a_at) / Fold change /veh EBF3 (11725865_a_at) / RFU CAMK2N1 (11719241_x_at) / Fold change /veh CAMK2N1 (11719241_x_at) / RFU C5orf56 (11738088_a_at) / Fold change /veh C5orf56 (11738088_a_at) / RFU OLFML3 (11715873_a_at) / Fold change /veh OLFML3 (11715873_a_at) / RFU LOC100653217 /// NTM (11731650_a_at) / Fold change /veh LOC100653217 /// NTM (11731650_a_at) / RFU MAPK11 (11762145_a_at) / Fold change /veh MAPK11 (11762145_a_at) / RFU FIZ1 (11724087_x_at) / Fold change /veh FIZ1 (11724087_x_at) / RFU OASL (11726364_x_at) / Fold change /veh OASL (11726364_x_at) / RFU SOX15 (11748057_x_at) / Fold change /veh SOX15 (11748057_x_at) / RFU CD79A (11719716_a_at) / Fold change /veh CD79A (11719716_a_at) / RFU HIST1H1D (11736915_at) / Fold change /veh HIST1H1D (11736915_at) / RFU CASKIN2 (11723855_a_at) / Fold change /veh CASKIN2 (11723855_a_at) / RFU LOC730098 (11760151_x_at) / Fold change /veh LOC730098 (11760151_x_at) / RFU OR4N2 (11742367_at) / Fold change /veh OR4N2 (11742367_at) / RFU PRRT2 (11749266_a_at) / Fold change /veh PRRT2 (11749266_a_at) / RFU SNX32 (11753110_a_at) / Fold change /veh SNX32 (11753110_a_at) / RFU CDHR5 (11726645_a_at) / Fold change /veh CDHR5 (11726645_a_at) / RFU RCAN1 (11760418_a_at) / Fold change /veh RCAN1 (11760418_a_at) / RFU FAM167A (11723789_a_at) / Fold change /veh FAM167A (11723789_a_at) / RFU FAM26E (11764081_at) / Fold change /veh FAM26E (11764081_at) / RFU ISYNA1 (11749810_s_at) / Fold change /veh ISYNA1 (11749810_s_at) / RFU ACY1 (11761880_at) / Fold change /veh ACY1 (11761880_at) / RFU 11764098_at / Fold change /veh 11764098_at / RFU SAMD14 (11745864_x_at) / Fold change /veh SAMD14 (11745864_x_at) / RFU NPB (11741838_a_at) / Fold change /veh NPB (11741838_a_at) / RFU TMPRSS6 (11731388_a_at) / Fold change /veh TMPRSS6 (11731388_a_at) / RFU KRTAP10-2 (11738614_at) / Fold change /veh KRTAP10-2 (11738614_at) / RFU ARHGAP8 /// PRR5-ARHGAP8 (11727945_x_at) / Fold change /veh ARHGAP8 /// PRR5-ARHGAP8 (11727945_x_at) / RFU KRTAP5-7 /// NADSYN1 (11734609_at) / Fold change /veh KRTAP5-7 /// NADSYN1 (11734609_at) / RFU RASL12 (11751679_a_at) / Fold change /veh RASL12 (11751679_a_at) / RFU CDKN2B (11736163_a_at) / Fold change /veh CDKN2B (11736163_a_at) / RFU PRF1 (11729649_at) / Fold change /veh PRF1 (11729649_at) / RFU, ZNF638 /// ZNF638-IT1 / Fold change vs veh, ZNF638 /// ZNF638-IT1 / RFU, PANK3 / Fold change vs veh, PANK3 / RFU, SH3YL1 / Fold change vs veh, SH3YL1 / RFU, ZEB2 / Fold change vs veh, ZEB2 / RFU, NRIP1 / Fold change vs veh, NRIP1 / RFU, PTTG1IP / Fold change vs veh, PTTG1IP / RFU, CAPN2 / Fold change vs veh, CAPN2 / RFU, MED14 / Fold change vs veh, MED14 / RFU, SNORA58 / Fold change vs veh, SNORA58 / RFU, C1orf63 / Fold change vs veh, C1orf63 / RFU, LRRFIP1 / Fold change vs veh, LRRFIP1 / RFU, NDUFAF7 / Fold change vs veh, NDUFAF7 / RFU, SLC12A2 / Fold change vs veh, SLC12A2 / RFU, IBTK / Fold change vs veh, IBTK / RFU, ESF1 / Fold change vs veh, ESF1 / Fold change vs veh, TMEM50B / RFU, TAOK1 / Fold change vs veh, TAOK1 / RFU, ACBD3 / Fold change vs veh, ACBD3 / RFU, TMA16 / Fold change vs veh, TMA16 / RFU, RWDD3 / Fold change vs veh, RWDD3 / RFU, BCAT1 / Fold change vs veh, BCAT1 / RFU, EDEM3 / Fold change vs veh, EDEM3 / RFU, TMEM33 / Fold change vs veh, TMEM33 / RFU, WDR75 / Fold change vs veh, WDR75 / RFU, AHCTF1 / Fold change vs veh, AHCTF1 / RFU, TFRC / Fold change vs veh, TFRC / RFU, ZDHHC17 / Fold change vs veh, ZDHHC17 / RFU, NOM1 / Fold change vs veh, NOM1 / RFU, ARL8B / Fold change vs veh, ARL8B / RFU, ZBTB11 / Fold change vs veh, ZBTB11 / RFU, TAMM41 / Fold change vs veh, TAMM41 / RFU, KIAA1704 /// LOC100996395 / Fold change vs veh, KIAA1704 /// LOC100996395 / RFU, ING1 / Fold change vs veh, ING1 / RFU, TRMT61B / Fold change vs veh, TRMT61B / RFU, FUBP3 / Fold change vs veh, FUBP3 / RFU, TP53 / Fold change vs veh, TP53 / RFU, TNKS2 / Fold change vs veh, TNKS2 / RFU, ZFP14 / Fold change vs veh, ZFP14 / RFU, ACTR2 / Fold change vs veh, ACTR2 / RFU, PPP3R1 / Fold change vs veh, PPP3R1 / RFU, PIK3R1 / Fold change vs veh, PIK3R1 / RFU, HNRNPA1 / Fold change vs veh, HNRNPA1 / RFU, RNF170 / Fold change vs veh, RNF170 / RFU, ZNF28 / Fold change vs veh, ZNF28 / RFU, RNGTT / Fold change vs veh, RNGTT / RFU, OGT / Fold change vs veh, OGT / RFU, BRD1 / Fold change vs veh, BRD1 / RFU, MARS / Fold change vs veh, MARS / RFU, ZNF655 / Fold change vs veh, ZNF655 / RFU, FAHD1 / Fold change vs veh, FAHD1 / RFU, BDP1 / Fold change vs veh, BDP1 / RFU, LRRCC1 / Fold change vs veh, LRRCC1 / RFU, ARID1A / Fold change vs veh, ARID1A / RFU, ZNF146 / Fold change vs veh, ZNF146 / RFU, ZNF330 / Fold change vs veh, ZNF330 / RFU, GPN3 / Fold change vs veh, GPN3 / RFU, C9orf123 / Fold change vs veh, C9orf123 / RFU, N4BP2L2 / Fold change vs veh, N4BP2L2 / RFU, ARFIP1 / Fold change vs veh, ARFIP1 / RFU, FAM179B / Fold change vs veh, FAM179B / RFU, BCL10 / Fold change vs veh, BCL10 / RFU, UHRF1BP1L / Fold change vs veh, UHRF1BP1L / RFU, BET1 / Fold change vs veh, BET1 / RFU, CNOT2 / Fold change vs veh, CNOT2 / RFU, ZNF268 / Fold change vs veh, ZNF268 / Fold change vs veh, ZNF507 / RFU, DGCR2 / Fold change vs veh, DGCR2 / RFU, WDSUB1 / Fold change vs veh, WDSUB1 / Fold change vs veh, HSP90B1 /// MIR3652 / RFU, ADSS / Fold change vs veh, ADSS / RFU, GK / Fold change vs veh, GK / RFU, ZNF148 / Fold change vs veh, ZNF148 / RFU, TAF9 / Fold change vs veh, TAF9 / RFU, SLC1A5 / Fold change vs veh, SLC1A5 / RFU, SLMO2 / Fold change vs veh, SLMO2 / RFU, ABCC4 / Fold change vs veh, ABCC4 / RFU, LOC101060439 /// RAP1B / Fold change vs veh, LOC101060439 /// RAP1B / RFU, RFX7 / Fold change vs veh, RFX7 / RFU, GTPBP10 / Fold change vs veh, GTPBP10 / RFU, CNEP1R1 / Fold change vs veh, CNEP1R1 / RFU, BIVM-ERCC5 /// ERCC5 / Fold change vs veh, BIVM-ERCC5 /// ERCC5 / RFU, ILF3 / Fold change vs veh, ILF3 / RFU 11762660_at / Fold change /veh 11762660_at / RFU VCAN (11757783_s_at) / Fold change /veh VCAN (11757783_s_at) / RFU DDX43 (11728927_at) / Fold change /veh DDX43 (11728927_at) / RFU KRT8 (11758188_x_at) / Fold change /veh KRT8 (11758188_x_at) / RFU NKD1 (11759106_at) / Fold change /veh NKD1 (11759106_at) / RFU SRD5A1 (11742802_a_at) / Fold change /veh SRD5A1 (11742802_a_at) / RFU TPSAB1 /// TPSB2 (11721975_s_at) / Fold change /veh TPSAB1 /// TPSB2 (11721975_s_at) / RFU GSTM3 (11746129_a_at) / Fold change /veh GSTM3 (11746129_a_at) / RFU IL23R (11737362_x_at) / Fold change /veh IL23R (11737362_x_at) / RFU TMEM51 (11727254_a_at) / Fold change /veh TMEM51 (11727254_a_at) / RFU PIWIL2 (11732686_x_at) / Fold change /veh PIWIL2 (11732686_x_at) / RFU ORM1 (11744905_x_at) / Fold change /veh ORM1 (11744905_x_at) / RFU CCDC152 (11743942_at) / Fold change /veh CCDC152 (11743942_at) / RFU ECM1 (11717891_a_at) / Fold change /veh ECM1 (11717891_a_at) / RFU IL23R (11748794_a_at) / Fold change /veh IL23R (11748794_a_at) / RFU TNFAIP8L3 (11732012_x_at) / Fold change /veh TNFAIP8L3 (11732012_x_at) / RFU MBOAT4 (11741988_at) / Fold change /veh MBOAT4 (11741988_at) / RFU 11764193_at / Fold change /veh 11764193_at / RFU TMEM53 (11763286_at) / Fold change /veh TMEM53 (11763286_at) / RFU MAGEB2 (11727129_at) / Fold change /veh MAGEB2 (11727129_at) / RFU TMEM200A (11744735_a_at) / Fold change /veh TMEM200A (11744735_a_at) / RFU CCDC152 (11751479_a_at) / Fold change /veh CCDC152 (11751479_a_at) / RFU FAM211A (11726209_a_at) / Fold change /veh FAM211A (11726209_a_at) / RFU RGS16 (11746705_a_at) / Fold change /veh RGS16 (11746705_a_at) / RFU VCAN (11755009_s_at) / Fold change /veh VCAN (11755009_s_at) / RFU RHOB (11743442_s_at) / Fold change /veh RHOB (11743442_s_at) / RFU RGS16 (11720943_a_at) / Fold change /veh RGS16 (11720943_a_at) / RFU RGS16 (11720944_at) / Fold change /veh RGS16 (11720944_at) / RFU, VPS4B / Fold change vs veh, VPS4B / RFU, CREB1 / Fold change vs veh, CREB1 / RFU, DNAJC13 / Fold change vs veh, DNAJC13 / RFU, GNAQ / Fold change vs veh, GNAQ / RFU, CDK5R1 / Fold change vs veh, CDK5R1 / RFU, ZRANB3 / Fold change vs veh, ZRANB3 / RFU, CUL4A / Fold change vs veh, CUL4A / RFU, CCNY / Fold change vs veh, CCNY / RFU, UFL1 / Fold change vs veh, UFL1 / RFU, COG3 / Fold change vs veh, COG3 / RFU, DIAPH2 / Fold change vs veh, DIAPH2 / RFU, SKA2 / Fold change vs veh, SKA2 / RFU, AFF3 / Fold change vs veh, AFF3 / RFU, LMF1 / Fold change vs veh, LMF1 / RFU, IPO11 / Fold change vs veh, IPO11 / RFU, DFFB / Fold change vs veh, DFFB / RFU, FOXP1 / Fold change vs veh, FOXP1 / RFU, CARD8 / Fold change vs veh, CARD8 / RFU, STRN3 / Fold change vs veh, STRN3 / RFU, ADK / Fold change vs veh, ADK / RFU, RASSF2 / Fold change vs veh, RASSF2 / RFU, WIPF1 / Fold change vs veh, WIPF1 / RFU, LARP1B / Fold change vs veh, LARP1B / RFU, RASA1 / Fold change vs veh, RASA1 / RFU, RB1 / Fold change vs veh, RB1 / RFU, PPFIA1 / Fold change vs veh, PPFIA1 / RFU, MAT2A / Fold change vs veh, MAT2A / RFU, CCT5 / Fold change vs veh, CCT5 / RFU, WDR92 / Fold change vs veh, WDR92 / RFU, CUX1 / Fold change vs veh, CUX1 / RFU, TTC7A / Fold change vs veh, TTC7A / RFU, TMEM135 / Fold change vs veh, TMEM135 / RFU, DEPTOR / Fold change vs veh, DEPTOR / RFU, CPM / Fold change vs veh, CPM / RFU, DNAJB6 / Fold change vs veh, DNAJB6 / RFU, CACNA2D3 / Fold change vs veh, CACNA2D3 / RFU, DTX4 / Fold change vs veh, DTX4 / RFU, TFCP2 / Fold change vs veh, TFCP2 / RFU, GMCL1 /// GMCL1P1 / Fold change vs veh, GMCL1 /// GMCL1P1 / RFU, AEBP2 / Fold change vs veh, AEBP2 / RFU, SNHG1 /// SNORD22 /// SNORD25 /// SNORD26 /// SNORD27 /// SNORD28 /// SNORD29 /// SNORD31 / Fold change vs veh, SNHG1 /// SNORD22 /// SNORD25 /// SNORD26 /// SNORD27 /// SNORD28 /// SNORD29 /// SNORD31 / Fold change (Aza/veh), C12orf56 (ProbeSet 11735607_a_at) / Fold change (ACY-1035/veh), C12orf56 (ProbeSet 11735607_a_at) / Fold change (Aza/veh), FGFR1OP (ProbeSet 11751329_s_at) / Fold change (ACY-1035/veh), FGFR1OP (ProbeSet 11751329_s_at) / Fold change (Aza/veh), VPS36 (ProbeSet 11739960_a_at) / Fold change (ACY-1035/veh), VPS36 (ProbeSet 11739960_a_at) / RFU SYPL1 (11715823_x_at) / Fold change /veh SYPL1 (11715823_x_at) / RFU IGFBP7 (11715501_s_at) / Fold change /veh IGFBP7 (11715501_s_at) / RFU REEP3 (11722064_at) / Fold change /veh REEP3 (11722064_at) / RFU IGLL1 (11728026_x_at) / Fold change /veh IGLL1 (11728026_x_at): dose or concentration left out as unconfirmed
Conditions: ProbeSet 11755070_a_at; LIST D

For Nc1ncn([C@@H]2O[C@H](CO)[C@@H](O)[C@H]2O)c(=O)n1 [azacitidine], the “Fold change vs veh, CARD8” value was 0.80.
